According to article PMC4739506 (Nature chemistry, 2013):

Tested on: P. falciparum 3D7 parasites (schizonts)
Experiment: YnMyr treatment of schizonts: morphology and life cycle progression
Type: cell-based
Details: up to 50 μM, 5 h

C#CCCCCCCCCCCCC(=O)O [YnMyr, tetradec-13-ynoic acid] was tested. Which “changes in morphology or life cycle progression” value did it give?
The value was “no changes were observed in morphology or life cycle progression”.
